Laboratory results from patent US20110262395A1, “SENSORY RECEPTORS FOR CHRONIC FATIGUE AND PAIN AND USES THEREOF” (UNIVERSITY OF UTAH RESEARCH FOUNDATION, priority 2008, published 2011).
pIC50: −log10 of the molar value. “And” between values parts separate entries of the source, which are not always exact repeats. Equal values may be shown once. “Also recorded” adds a separate entry of the source.

Key:
[1] = system: DRG neurons; experiment: Calcium imaging of cultured DRG neurons: antagonist effects on responses to capsaicin, ATP or KCl (selectivity control); type: cell-based, mouse
Excerpt: (§1) Harvesting/culturing cells/loading cells: Thirty-nine three week old (4 wells of DRG neurons plated from each mouse), C57Bl/6 mice were anesthetized with isoflurane, and euthanized by cervical dislocation. Dorsal root ganglia (DRG) from lumbar regions were removed into HBSS, treated with trypsin, washed with MEM (Invitrogen 51200-038) containing 10% FBS (Hyclone), 2.4% glucose, 1% glutamax (Invitrogen 35050-061) and 1% penicillin/streptomycin (Atlanta Biological B2110). DRG were triturated, pre-plated and incubated at 37° C. for one hour to reduce non-neuronal cells. Neurons were gently swirled and centrifuged (110×g, 5 min). Cells were removed, re-suspended and 30 μL plated onto the 4 center wells of 24-well plates coated with poly-L-lysine and laminin. A 0.5 mm thick silicone ring with a 4 mm diameter opening sealed to the surface of each well reduced the plating area in each well. Following 1 hour, wells were filled with 37° C. culture medium with 10 ng/mL GDNF (Glial Derived Neurotrophic Factor) (Preprotech 450-10). Sixteen to 23 hours after plating, cultures were loaded with Fura-2 AM (Molecular Probes F-1221) fluorescent dye for 40-60 minutes, then washed with pH 7.4 oxygenated observation medium containing no additional ATP (145 mM NaCl, 5 mM KCl, 2 mM CaCl2, 1 mM MgCl2, 1 mM Citrate, 10 mM glucose, 10 mM MES, 10 mM HEPES). The final well volume was 500 μL.
(§2) JYL-1422, LJO-328, A-317567, and a selected stereo isomer of A-317567 were each dissolved in 5% DMSO/95% water and a few μL of 1M HCl to a concentration of 10 mM, then quick frozen and stored at −20° C. Aliquots of antagonists were thawed and diluted to the appropriate concentrations just prior to use in the experiments. The strong buffers maintained the pH of these antagonists when mixed with metabolites.
(§3) Imaging procedure: All experiments were performed at room temperature (20-25° C.) to allow correspondence with most previous experiments using calcium imaging and patch clamp of DRG neurons. Cells were imaged using the Meta Imaging Series Metafluor program (Universal Imaging Corp). All cells identifiable as neurons based on their round shape, clear, single nucleus, were selected from a phase image of the field. At the end of each experiment, 200 nM capsaicin was applied, followed by a wash, and then applied 50 mM KCl. Capsaicin activation indicated the presence of TRPV1 receptors on neurons, and KCl ensured that recorded objects were active neurons, and established the maximal calcium response in each neuron. For some neurons the administration of capsaicin abolished the potential for responding to KCl, thus either a response to capsaicin or to KCl indicated viability of neurons, and only viable neurons were included in analyses.
For each field an average of 151+10 cells were tracked real-time. […]

[2] = biological target: TRPV1 (Homo sapiens, UniProt Q8NER1); conditions: cited from earlier work
[3] = biological target: T1, ASIC3 (Homo sapiens, UniProt Q9UHC3); conditions: pH 7.0; cited from earlier work
T1 sequence (Q9UHC3 1-531): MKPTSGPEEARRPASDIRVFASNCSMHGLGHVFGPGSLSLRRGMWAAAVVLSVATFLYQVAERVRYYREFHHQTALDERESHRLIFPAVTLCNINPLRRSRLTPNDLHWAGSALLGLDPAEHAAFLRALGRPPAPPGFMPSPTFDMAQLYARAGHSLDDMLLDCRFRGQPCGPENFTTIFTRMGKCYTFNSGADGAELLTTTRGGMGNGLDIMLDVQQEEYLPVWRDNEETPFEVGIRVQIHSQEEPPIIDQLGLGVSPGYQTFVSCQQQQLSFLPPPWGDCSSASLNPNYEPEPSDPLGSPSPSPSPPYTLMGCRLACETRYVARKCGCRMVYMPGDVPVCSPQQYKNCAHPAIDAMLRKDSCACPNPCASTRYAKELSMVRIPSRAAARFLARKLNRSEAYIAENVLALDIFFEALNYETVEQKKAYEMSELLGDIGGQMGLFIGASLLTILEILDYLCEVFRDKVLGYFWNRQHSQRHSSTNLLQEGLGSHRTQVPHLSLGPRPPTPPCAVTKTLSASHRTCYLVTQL

[4] = system: ASIC receptor; conditions: cited from earlier work
[5] = system: DRG neurons; experiment: Calcium imaging of cultured DRG neurons: percent of neurons responding to applied metabolites or capsaicin; type: cell-based, mouse; conditions: 200 nM
Excerpt: as §1
Choice and concentrations of metabolites: Because the afferent receptors in muscle have been reported to be on the outside of blood vessels supplying muscle, values obtained for muscle interstitium from experiments using cat, rat, and human for muscle contraction evoked by mild to moderate to extreme exercise were used.
Protons (pH): Values between 7.6 and 6.2 were used spanning the range found in skeletal and cardiac muscle in mammals from above resting values to those found with injury and disease.
Lactate: 1-50 mM lactate was used, a range of values that spans from rest to ischemia in muscles of humans and rats and mice.
ATP: ATP concentrations in muscle interstitium increase from 300 nM at rest to 5 μM with ischemic muscle contraction (Hellsten et al., 1998; Li et al., 2003; Li et al., 2005). These levels were used in the experiments described below. […] To allow for physiological levels of desensitization of possible P2X receptors, freshly prepared ATP at 300 nM was used for at least 30 seconds before any further increases in ATP combined with other metabolites, to establish resting conditions in DRG neurons in these experiments. […] Also used were pH 6.0 and 4.0 without additional increases in metabolites to confirm that the imaging experiments could replicate recent reports using patch-clamp techniques (Leffler et al., 2006).
(§4) Combinations of metabolites applied to mimic naturally occurring conditions: When applied in an escalating series to mimic increases in metabolites that occur with muscle exercise and ischemic muscle exercise, the metabolite values shown in Table 1 were used. The values associated with pH 7.6 are at or below those normally found at rest in the mouse. The values at 7.4 approximate those found at rest. Generally, the low metabolite values associated with pH higher than 7.0 are likely to be non-noxious, while higher metabolite values at pH 7.0 and lower may be associated with pain. These values should bracket the physiological range of metabolites found in skeletal muscle with the last two values (those associated with 6.4 and 6.2) being higher than the physiological range (Bangsbo et al., 1993; Bangsbo et al., 2001; Li et al., 2003; Li et al., 2005; Reeh and Kress, 2001; Steinhagen et al., 1976).
Di-I labeling: In some experiments, neurons were identified as innervating muscle by prior muscle labeling with Di-I. Twelve 7-9 day old mice were anesthetized by cooling. […]

[6] = system: DRG neurons; conditions: patch-clamp, previous reports; cited from earlier work
[7] = biological target: TRPV1 receptors (Mus musculus, UniProt Q704Y3); conditions: cited from earlier work
[8] = system: DRG neurons; experiment: Calcium imaging of cultured DRG neurons: antagonist effects on responses to increasing metabolites (protons, lactate, ATP); type: cell-based, mouse
Excerpt: as §1, §4, §2, §3
For each field an average of 151+10 cells were tracked real-time. […] FIGS. 1 and 2 show traces from these graphs. […]

[9] = biological target: T2, P2X3 receptors (Homo sapiens, UniProt P56373); conditions: cited from earlier work
T2 sequence (P56373 1-397): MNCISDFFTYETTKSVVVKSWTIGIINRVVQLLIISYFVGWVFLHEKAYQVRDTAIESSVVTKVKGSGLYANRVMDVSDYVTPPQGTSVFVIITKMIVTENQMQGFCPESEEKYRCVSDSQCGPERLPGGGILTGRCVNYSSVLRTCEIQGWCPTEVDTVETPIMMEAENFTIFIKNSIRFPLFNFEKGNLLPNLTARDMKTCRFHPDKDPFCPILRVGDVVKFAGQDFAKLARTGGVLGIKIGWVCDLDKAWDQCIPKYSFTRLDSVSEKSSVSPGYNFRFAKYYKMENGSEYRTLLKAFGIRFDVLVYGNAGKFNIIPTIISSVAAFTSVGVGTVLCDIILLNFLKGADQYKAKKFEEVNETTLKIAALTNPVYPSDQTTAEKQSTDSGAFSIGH

[10] = biological target: P2X5 receptors (Homo sapiens, UniProt Q93086); conditions: cited from earlier work
[11] = biological target: T3, mouse P2X4 receptors (Mus musculus, UniProt Q9JJX6); conditions: cited from earlier work
T3 sequence (Q9JJX6 1-388): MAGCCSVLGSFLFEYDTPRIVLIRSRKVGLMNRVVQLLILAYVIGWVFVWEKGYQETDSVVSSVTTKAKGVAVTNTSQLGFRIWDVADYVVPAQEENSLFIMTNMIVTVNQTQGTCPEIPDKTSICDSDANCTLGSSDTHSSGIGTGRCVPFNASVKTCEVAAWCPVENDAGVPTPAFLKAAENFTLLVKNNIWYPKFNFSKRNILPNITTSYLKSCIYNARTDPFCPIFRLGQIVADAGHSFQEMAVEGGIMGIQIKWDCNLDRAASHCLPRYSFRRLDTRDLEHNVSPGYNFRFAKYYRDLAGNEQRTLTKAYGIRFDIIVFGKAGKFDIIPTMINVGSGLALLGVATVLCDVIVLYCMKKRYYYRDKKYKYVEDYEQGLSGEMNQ

Sequence of TRPV1 receptors (Q704Y3 whole entry): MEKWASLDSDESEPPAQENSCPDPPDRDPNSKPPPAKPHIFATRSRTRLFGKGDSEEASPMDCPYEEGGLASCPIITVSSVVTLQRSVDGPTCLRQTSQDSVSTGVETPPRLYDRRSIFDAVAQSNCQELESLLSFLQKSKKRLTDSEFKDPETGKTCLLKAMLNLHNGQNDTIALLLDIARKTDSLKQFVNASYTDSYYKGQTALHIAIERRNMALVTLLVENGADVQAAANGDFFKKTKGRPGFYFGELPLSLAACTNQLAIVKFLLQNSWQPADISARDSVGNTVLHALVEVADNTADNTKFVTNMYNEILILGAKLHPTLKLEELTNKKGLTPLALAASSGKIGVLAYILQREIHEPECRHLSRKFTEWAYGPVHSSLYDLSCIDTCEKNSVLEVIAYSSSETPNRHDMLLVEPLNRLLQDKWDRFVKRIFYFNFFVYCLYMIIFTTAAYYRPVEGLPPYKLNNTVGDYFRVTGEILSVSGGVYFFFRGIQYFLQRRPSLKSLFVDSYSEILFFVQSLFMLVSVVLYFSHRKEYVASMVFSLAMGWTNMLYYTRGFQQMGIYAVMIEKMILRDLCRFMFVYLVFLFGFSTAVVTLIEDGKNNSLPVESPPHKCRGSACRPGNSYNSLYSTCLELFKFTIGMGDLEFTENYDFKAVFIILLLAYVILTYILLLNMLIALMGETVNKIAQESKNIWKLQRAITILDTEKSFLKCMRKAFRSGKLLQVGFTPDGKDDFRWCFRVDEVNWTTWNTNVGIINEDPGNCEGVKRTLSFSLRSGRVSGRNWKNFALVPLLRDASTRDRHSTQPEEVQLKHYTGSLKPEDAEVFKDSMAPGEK
Sequence of P2X5 receptors (Q93086 whole entry): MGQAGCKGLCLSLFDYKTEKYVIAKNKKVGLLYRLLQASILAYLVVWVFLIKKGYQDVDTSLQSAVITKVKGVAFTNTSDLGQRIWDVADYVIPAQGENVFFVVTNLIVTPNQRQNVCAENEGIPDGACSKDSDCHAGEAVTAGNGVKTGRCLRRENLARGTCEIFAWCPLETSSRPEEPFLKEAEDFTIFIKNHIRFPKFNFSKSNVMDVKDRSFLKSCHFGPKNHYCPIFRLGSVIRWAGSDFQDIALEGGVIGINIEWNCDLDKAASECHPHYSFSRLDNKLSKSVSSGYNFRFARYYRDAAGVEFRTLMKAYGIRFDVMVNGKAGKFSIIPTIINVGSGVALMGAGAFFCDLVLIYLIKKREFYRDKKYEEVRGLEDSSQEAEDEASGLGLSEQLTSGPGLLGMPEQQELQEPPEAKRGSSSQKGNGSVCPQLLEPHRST
Sequence of TRPV1 (Q8NER1 whole entry, species assumed): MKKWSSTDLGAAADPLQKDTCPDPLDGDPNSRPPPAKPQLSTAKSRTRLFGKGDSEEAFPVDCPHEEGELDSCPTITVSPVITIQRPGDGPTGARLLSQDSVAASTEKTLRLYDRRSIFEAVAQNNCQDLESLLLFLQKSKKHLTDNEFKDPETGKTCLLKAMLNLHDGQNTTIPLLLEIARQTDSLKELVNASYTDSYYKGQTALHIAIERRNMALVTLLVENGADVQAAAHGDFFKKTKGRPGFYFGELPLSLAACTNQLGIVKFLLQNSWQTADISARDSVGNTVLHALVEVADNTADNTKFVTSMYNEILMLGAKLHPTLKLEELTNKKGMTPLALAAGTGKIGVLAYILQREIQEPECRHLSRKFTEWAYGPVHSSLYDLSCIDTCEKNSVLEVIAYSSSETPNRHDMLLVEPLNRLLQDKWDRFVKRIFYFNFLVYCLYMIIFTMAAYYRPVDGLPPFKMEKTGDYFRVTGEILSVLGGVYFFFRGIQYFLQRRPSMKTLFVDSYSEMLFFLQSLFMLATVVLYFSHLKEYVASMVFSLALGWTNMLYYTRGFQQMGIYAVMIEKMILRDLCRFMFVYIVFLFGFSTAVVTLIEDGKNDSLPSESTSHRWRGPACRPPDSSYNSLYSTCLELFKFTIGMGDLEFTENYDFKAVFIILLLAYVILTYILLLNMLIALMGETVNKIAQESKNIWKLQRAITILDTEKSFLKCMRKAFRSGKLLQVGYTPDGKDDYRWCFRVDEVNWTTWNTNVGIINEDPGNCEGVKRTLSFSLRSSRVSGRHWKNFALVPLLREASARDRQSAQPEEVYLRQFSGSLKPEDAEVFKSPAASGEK

In the case of `Cc1ccc(CC(CNC(=S)NCc2ccc(NS(C)(=O)=O)c(F)c2)COC(=O)C(C)(C)C)cc1C` (centres unmarked) [JYL-1433], the “responses to KCl application in presence of antagonist” value ([1]; antagonist 2 μM, 50 mM KCl) is listed as “remained normal” and the TRPV1 antagonism [2] is listed as “potent full antagonists of TRPV1”.
For `N=C(N)NC(=O)c1nc(Cl)c(N)nc1N` [Amiloride], the “effect on ASIC3 responses to moderate pH levels” value [3] is listed as “enhanced” and the “effect on ASIC receptor responses to low pH” value [4] is listed as “antagonizes all ASIC receptor responses to low pH”.
In the case of `COc1cc(CNC(=O)CCCC/C=C/C(C)C)ccc1O` [capsaicin], the “percentage of DRG neurons responding with rapid calcium increase” value (“percentage … with rapid calcium increase” below) ([5]; all DRG neurons) was 50.9±4.2%, the “percentage … with rapid calcium increase” value ([5]; all muscle labeled neurons) was 48.8 ± 5.8% and the “percentage … with rapid calcium increase” value ([5]; metabolite-responding DRG neurons) was 71.9 ± 4.2%. The “percentage … with rapid calcium increase” value ([5]; muscle labeled metabolite responders) was 63.4 ± 5.8% and the “capsaicin responses in DRG neurons, percent” value [6] was 36% and 20%.
In the case of `Oc1cc2c(cc1O)CN(C(=S)NCCc1ccc(Cl)cc1)CCC2` [Capsazepine], the “inhibitory action on pH responses of TRPV1 receptors” value [7] is listed as “little inhibitory action”.
With TNP-ATP the “effect on responses to increasing metabolites” value ([8]; antagonist 10 nM) was “facilitated responses; also recorded: can increase responses of DRG neurons to increasing metabolites”, the “effect on responses to increasing metabolites” value ([8]; antagonist 200 μM) was “blocked nearly all responses to metabolites; also recorded: abolished most responses to increasing metabolites” and the “effect on metabolite responses associated with pH 6.8 and above” value ([8]; antagonist 1 and 10 μM) was “had little effect”. The “effect on responses to low metabolites” value ([8]; antagonist 1 and 10 μM (FIG. 2 legend: 1 μM), metabolites between pH 7.3-7.0) was “reduced low metabolite responses; also recorded: reduced responses of DRG neurons; also recorded: eliminated most responses to low metabolites”, the “effect on responses to increasing metabolites” value ([8]; antagonist 200-300 μM, doses effective at all P2X receptors) was “eliminated nearly all responses to increasing metabolites” and the “effect on responses to metabolites” value ([8]; antagonist at 10 μM (so in the source), p<0.05) was “increased responses to metabolites”. The “capsaicin and KCl responses in presence of antagonist” value ([1]; any dose) was “unaffected”, the pIC50 [9] was 9.51 and 9.52 and the pIC50 [10] was 6.30. The pIC50 [11] was 4.80.
